Measured values reported in patent US10993923B2, “Method for ameliorating fibrosis using 1-[4-chloro-3-(trifluoromethyl)phenyl]-3-[3-(4-cyanophenoxy)phenyl]urea” (priority 2016, dated 2021).

Key:
[1] = system: CCl4-induced hepatic fibrosis in mice; test: CCl4-induced hepatic fibrosis mice prevention model; assay type: in vivo, male C57BL/6J mice; conditions: concurrently administered with CCl4 for 4 weeks; FIG. 11A-11E
Excerpt: (§1) In male C57BL/6J mice, liver fibrosis was induced by carbon tetrachloride (CCl4). The mice were given peritoneal injection of carbon tetrachloride for 4 or 8 weeks every two weeks.
(§2) The mice liver samples were stored in 10% formaldehyde, dehydrated with gradient alcohol, embedded in paraffin blocks, sectioned to a thickness of 3 μm, placed on glass slides, and stained with Picrosirius Red Stain kit (ScyTek, USA), following the manufacturer's instructions. The severity of liver fibrosis was graded according to the Ishak fibrosis score. Quantitative collagen-positive area (qCPA) was determined by densitometry via ImageJ software. Hepatic hydroxyproline concentrations were measured by the hydroxyproline assay kit (Biovision, USA), following the manufacturer's instructions Immunohistochemistry was performed by the Leica BOND-MAX automatic chromatograph (Leica Biosystems, Germany), following the manufacturer's instructions.

primary mouse HSCs = test: Cell viability (MTS), primary mouse HSCs; assay type: cell-based; conditions: 24 or 48 hours; FIG. 14A
Experimental: (§3) Rat immortal hepatic stellate cell line HSC-T6 and LX2 human hepatic stellate cell line were provided by Professor Scott Friedman of Mount Sinai Hospital in New York, USA. The primary mouse HSCs were obtained via the way: after intubating the hepatic portal vein of the mouse, the cells were perfused with Leffert's and ethylene glycol bis-aminoethyl ether tetraacetic acid (EGTA) buffer in situ, and then collagenase was injected to digest the liver tissue, and then the primary mouse HSCs were isolated by Histodnz gradient. […]
(§4) HSC-T6 cells, LX2 cells or primary mouse HSCs cells were seeded in 96-well plates (5,000 cells/well) for 24 hours, and the cells were treated with various concentrations of 1-[4-chloro-3-(trifluoromethyl)phenyl]-3-[3-(4-cyanophenoxy)phenyl]urea or Sorafenib for 24 or 48 hours. The effect of each reagent on the cell viability and the cell were evaluated by CellTiter 96 AQueous one solution of 3-(4,5-dimethylthiazol-2-yl)-5-(3-carboxymethoxyphenyl)-2-(4-sulfophenyl)-2H-tetra zolium, an inner, MTS (Promega, USA). […] The proportion of apoptotic cells was mixed the early (Annexin V+/PI−) and the late (Annexin V+/PI+) apoptotic cells measured by BD FACS Verse flow cytometry (BD, USA).

HSC-T6 cells = test: Apoptosis (Annexin V / propidium iodide flow cytometry), HSC-T6 cells; assay type: cell-based, rat
Experimental: as §3
as §4, with “(BD, USA). […]” for “(BD, USA).”

[2] = system: CCl4-induced hepatic fibrosis in mice; test: CCl4-induced hepatic fibrosis mice treatment model; assay type: in vivo, male C57BL/6J mice
Excerpt: as §1, §2
Continuous variables are presented as mean (standard error), and categorical data are presented as number (percentage), as appropriate. Differences between subgroups were evaluated using the Student t test. Spearman's correlation was used for the association between SHP-1 and serum alanine aminotransferase (ALT). The mouse survival rate was estimated using the Kaplan-Meier method. The log-rank test was used to determine the statistical differences in survival of the different experimental groups. Statistical analysis was performed using STATA (version 13, Stata Corp, College Station, Tex., USA). All tests were two-sided, and P<0.05 was considered significant.

N#Cc1ccc(Oc2cccc(NC(=O)Nc3ccc(Cl)c(C(F)(F)F)c3)c2)cc1 [1-[4-chloro-3-(trifluoromethyl)phenyl]-3-[3-(4-cyanophenoxy)phenyl]urea]
hepatic fibrosis (Picrosirius Red staining, qCPA, Ishak fibrosis score, α-SMA expression, hydroxyproline concentration) [1]: significant fibrosis regression | viability of primary mouse HSCs (primary mouse HSCs): dose- and time-dependent effects to reduce the viability | HSC apoptosis (HSC-T6 cells; HSC-T6, 24 hours, compared with sorafenib, FIG. 14B): significantly increased HSC apoptosis in a dose-dependent manner | compound-induced apoptosis in STAT3-overexpressing HSCs (HSC-T6 cells; rat STAT3 stable overexpression clone, FIG. 15C): significantly abolished | survival compared with the sorafenib treatment ([2]; 10 mg/kg, log rank P=0.0671, FIG. 12E): tendency to yield higher survival | survival rate compared with the control group ([2]; 10 mg/kg, log-rank P=0.0291, FIG. 12E): significantly improved the survival rate | anti-fibrotic activity in qCPA, Ishak fibrosis score and hydroxyproline concentration ([2]; 5, 10, or 20 mg/kg, FIG. 12B-12D): increasing anti-fibrotic activity | hepatic fibrosis (picrosirius red staining) ([2]; compound 5, 10, or 20 mg/kg or sorafenib 10 mg/kg, with CCl4 for 6 weeks after 2 weeks CCl4 induction, FIG. 12A): significantly improved hepatic fibrosis
